# Test results taken from patent publication US6706740B2, “Fungicidal heterocyclic aromatic amides and their compositions, methods of use and preparation” (Dow AgroSciences LLC, priority 1999, dated 2004).
# Read-outs that look alike come from different tables or passages of the source.
# Columns and labels:
# Erysiphe graminis—ERYSGT = test: Powdery Mildew of Wheat, in vivo whole plant, 24 Hour Protectant; conditions: for pest or weed control at 100 ppm: Erysiphe, read-out: ERYSGT in vivo 1 Day Protectant
# [1] = test system: Leptosphaeria nodorum—LEPTNO; test: Glume Blotch of Wheat, in vivo whole plant, 24 Hour Protectant; conditions: for pest or weed control at 100 ppm: Leptosphaeria, read-out: LEPTNO in vivo 1 Day Protectant
# [2] = test system: Stagonospora nodorum (Leptosphaeria nodorum—LEPTNO); test: In vitro fungal growth inhibition, Stagonospora nodorum (LEPTNO); format: cell-based; conditions: Leptosphaeria, read-out: LEPTNO in vitro Growth Inhibition
# Septoria tritici—SEPTTR = test: Leaf Blotch of Wheat, in vivo whole plant, 24 Hour Protectant; conditions: for pest or weed control at 100 ppm: Zymoseptoria tritici, 24 h, read-out: SEPTTR in vivo 1 Day Protectant
# [3] = test system: Puccinia recondita—PUCCRT; test: Brown Rust of Wheat, in vivo whole plant, 24 Hour Protectant; conditions: for pest or weed control at 100 ppm: Puccinia, read-out: PUCCRT in vivo 1 Day Protectant
# Ustilago maydis (USTIMA) = test: microbe, parasite or virus in culture; format: cell-based; conditions: Mycosarcoma maydis, read-out: USTIMA in vitro Growth Inhibition
# [4] = test system: Phytophthora infestans—PHYTIN; test: whole plant or invertebrate; format: in vivo; conditions: Phytophthora, in Solanum lycopersicum, 24 h, read-out: PHYTIN in vivo 1 Day Protectant
# [5] = test system: Rhizoctonia solani (RHIZSO); test: microbe, parasite or virus in culture; format: cell-based; conditions: Rhizoctonia solani, read-out: RHIZSO in vitro Growth Inhibition
# [6] = test system: Mycosphaerella graminicola (Septoria tritici—SEPTTR); test: In vitro fungal growth inhibition, Mycosphaerella graminicola (SEPTTR); format: cell-based; conditions: Zymoseptoria tritici, read-out: SEPTTR in vitro Growth Inhibition
# [7] = test system: Magnaporthe grisea (Pyricularia oryzae—PYRIOR); test: microbe, parasite or virus in culture; format: cell-based; conditions: Pyricularia oryzae, read-out: PYRIOR in vitro Growth Inhibition
# [8] = test system: Phytophthora infestans (PHYTIN); test: microbe, parasite or virus in culture; format: cell-based; conditions: Phytophthora infestans, read-out: PHYTIN in vitro Growth Inhibition
# [9] = wheat plants sprayed at 100 ppm, inoculated after 24 hours, control of fungal infection vs untreated plants
# [10] = 100 ppm spray, wheat, 24 hour protectant, % control of fungal infection vs untreated plants
SMILES,pest or weed control at 100 ppm (Erysiphe graminis—ERYSGT; [9]) [%],"pest or weed control at 100 ppm [1, 9] [%]",inhibition at 25 ppm ([2]; 25 ppm in the growth medium) [%],pest or weed control at 100 ppm (Septoria tritici—SEPTTR; [9]) [%],"pest or weed control at 100 ppm [3, 9] [%]",inhibition at 25 ppm (Ustilago maydis (USTIMA)) [%],pest or weed control at 100 ppm [4] [%],inhibition at 25 ppm [5] [%],inhibition at 25 ppm ([6]; 25 ppm in the growth medium) [%],inhibition at 25 ppm [7] [%],inhibition at 25 ppm [8] [%],pest or weed control at 100 ppm (Erysiphe graminis—ERYSGT; [10]) [%],"LEPTNO in vivo 1 Day Protectant [1, 10]",inhibition at 25 ppm ([2]; 25 ppm in growth medium) [%],"PUCCRT in vivo 1 Day Protectant [3, 10]",inhibition at 25 ppm ([6]; 25 ppm in growth medium) [%],SEPTTR in vivo 1 Day Protectant (Septoria tritici—SEPTTR; [10]),further results
COC(=O)C(COC(=O)C(COC(=O)C(C)C)Cc1ccccc1)NC(=O)c1nccc(OC)c1OC(C)=O (stereo not drawn) [Compound 587],< 25,25 to 74,< 80,25 to 74,25 to 74,< 80,< 25,< 80,< 80,< 80,< 80,,,,,,,
COc1ccnc(C(=O)NC(COC(=O)C(C)Cc2ccccc2)C(=O)OC(C)C)c1OC(C)=O (stereo not drawn) [Compound 588],< 25,25 to 74,< 80,< 25,,< 80,< 25,< 80,< 80,< 80,< 80,,,,,,,"PUCCRT in vivo 1 Day Protectant [3, 9]: + +"
COc1ccnc(C(=O)NC(COC(=O)C(Cc2ccccc2)C(C)OC(=O)C(C)C)C(=O)OC(C)C)c1OC(C)=O (stereo not drawn) [Compound 589],< 25,< 25,< 80,25 to 74,25 to 74,< 80,< 25,< 80,< 80,< 80,< 80,,,,,,,
COc1ccnc(C(=O)NC(COC(=O)CCc2ccccc2)C(=O)OC(C)COC(=O)C(C)C)c1OC(C)=O (stereo not drawn) [Compound 590],< 25,25 to 74,< 80,25 to 74,25 to 74,< 80,< 25,< 80,< 80,< 80,< 80,,,,,,,
COc1ccnc(C(=O)N[C@@H]2O[C@H](COC(C)=O)[C@H](OC(C)=O)[C@H](OC(C)=O)[C@H]2OC(C)=O)c1OC(C)=O [Compound 591],< 25,25 to 74,< 80,25 to 74,< 25,< 80,< 25,< 80,< 80,< 80,< 80,,,,,,,
COc1ccnc(C(=O)N[C@@H]2OC[C@@H](OCc3ccccc3)[C@H](OCc3ccccc3)[C@H]2OCc2ccccc2)c1OC(C)=O [Compound 592],< 25,25 to 74,< 80,25 to 74,< 25,< 80,< 25,< 80,< 80,< 80,< 80,,,,,,,
COc1ccnc(C(=O)N[C@H]2CO[C@H](C(C)Cc3ccc(C(C)(C)C)cc3)OC2)c1OC(C)=O (stereo partly drawn) [Compound 594],< 25,25 to 74,> 80,25 to 74,,< 80,< 25,> 80,> 80,> 80,< 80,,,,,,,"PUCCRT in vivo 1 Day Protectant [3, 9]: + +"
COc1ccnc(C(=O)N[C@H]2COC(=O)[C@H](Cc3ccccc3)[C@@H](OC(C)=O)[C@H](C)OC2=O)c1OC(C)=O [Compound 596],,,,,,< 80,< 25,< 80,,> 80,> 80,< 25,+ +,< 80,+ +,< 80,,pest or weed control at 100 ppm (Septoria tritici—SEPTTR; [10]): 25 to 74%
C/C=C/C(=O)Oc1c(OC)ccnc1C(=O)N[C@H]1COC(=O)[C@H](Cc2ccccc2)[C@@H](OC(=O)C(C)C)[C@H](C)OC1=O [Compound 600],,,,,,< 80,< 25,< 80,,> 80,< 80,< 25,+ +,> 80,+ +,< 80,+ +,
COc1ccnc(C(=O)N[C@H]2COC(=O)[C@H](Cc3ccccc3)[C@@H](OC(=O)C(C)C)[C@H](C)OC2=O)c1OC(=O)C(C)(C)C [Compound 605],,,,,,< 80,< 25,< 80,,< 80,< 80,< 25,+ +,< 80,+ +,< 80,+ +,
COc1ccnc(C(=O)N[C@H]2COC(=O)[C@H](Cc3ccccc3)[C@@H](OC(=O)C(C)C)[C@H](C)OC2=O)c1OC(=O)C=C(C)C [Compound 607],,,,,,< 80,< 25,< 80,,< 80,< 80,< 25,,> 80,+ +,< 80,+ +,"pest or weed control at 100 ppm [1, 10]: 25 to 74%"
COc1ccnc(C(=O)N[C@H]2COC(=O)[C@H](Cc3ccccc3)[C@@H](OC(=O)C(C)C)[C@H](C)OC2=O)c1OC(=O)C1CCCC1 [Compound 611],,,,,,< 80,< 25,< 80,,< 80,< 80,< 25,+ +,< 80,+ +,< 80,+ +,
COc1ccnc(C(=O)N[C@H]2COC(=O)[C@H](Cc3ccccc3)[C@@H](OC(=O)C(C)C)[C@H](C)OC2=O)c1OC(=O)C1CCCCC1 [Compound 612],,,,,,< 80,< 25,< 80,,< 80,< 80,< 25,+ +,> 80,+ +,< 80,+ +,
CCCCCCC(=O)Oc1c(OC)ccnc1C(=O)N[C@H]1COC(=O)[C@H](Cc2ccccc2)[C@@H](OC(=O)C(C)C)[C@H](C)OC1=O [Compound 613],,,,,,< 80,25 to 74,< 80,,< 80,> 80,,,< 80,+ +,< 80,+ +,"ERYSGT in vivo 1 Day Protectant (Erysiphe graminis—ERYSGT; [10]): + +; pest or weed control at 100 ppm [1, 10]: 25 to 74%"
COc1ccnc(C(=O)N[C@H]2COC(=O)[C@H](Cc3ccccc3)[C@@H](OC(=O)C(C)C)[C@H](C)OC2=O)c1OC(=O)CCCBr [Compound 625],,,,,,< 80,< 25,< 80,,< 80,< 80,< 25,+ +,> 80,+ +,< 80,+ +,
